Assay results reported in BindingDB's records for patent US11802108 (The University Court of The University of Edinburgh, 2023).

Target: Peptidyl-prolyl cis-trans isomerase A (Homo sapiens, UniProt P62937)
Test: Isothermal Titration Calorimetry (ITC)
Experimental: The buffer used in the titrations of the compounds belonging to the ester series was 50 mM phosphate buffer, pH 6.5 and the concentration of DMSO was 2% v/v for all the compounds, unless otherwise stated in Table 51. […] Control experiments were performed, where each compound was titrated into buffer and when small amount of heat was detected due to heat of dilution, it was subtracted when processing the data using a linear fit method. In all cases the first injection was omitted from the data processing. All data were analysed using the MicroCal PEAQ-ITC Analysis software.

Sequence of Peptidyl-prolyl cis-trans isomerase A (P62937 whole entry): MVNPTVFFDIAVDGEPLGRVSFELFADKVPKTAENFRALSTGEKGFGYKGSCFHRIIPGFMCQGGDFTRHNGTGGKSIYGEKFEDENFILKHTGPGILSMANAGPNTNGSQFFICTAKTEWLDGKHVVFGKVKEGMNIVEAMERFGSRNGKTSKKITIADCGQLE

## CCOC(=O)CNC(=O)N(Cc1ccc(N)cc1)Cc1cn(CC(=O)OCC)nn1 [US11802108, Compound 20]
  Kd: > 600 µM
